Key:
[1] = system: B16F10 murine melanoma cells; format: cell-based
[2] = system: 4T1 murine breast cancer cells; format: cell-based
[3] = system: D2A1 cells; format: cell-based
[4] = system: B16F10 cells; format: cell-based, murine
[5] = system: HeLa cells; format: cell-based, human
[6] = system: 4T1 cells; format: cell-based, murine
[7] = system: HeLa cells; format: cell-based, human; remark: listed apart in the source
[8] = system: HeLa cells; format: cell-based, human; remark: listed apart in the source
[9] = system: p38; format: cell-based, human
[10] = system: HeLa cells; assay: Western blotting of T3SS translocated proteins from infected cells (digitonin lysis); format: cell-based, human; settings: HeLa cells coinfected with strain delivering 2×TEV cleavage site substrate, 2 h, MOI of 100
Text: Western blotting of T3SS translocated proteins from infected cells. HeLa cells in 6-well plates were infected at an MOI of 100 as described above. In case of coinfection with the TEV protease translocating Y. enterocolitica strain, the OD600 of the strains was set and the two bacterial suspensions were mixed in a tube at a ratio of 1:1 (if not otherwise indicated) before addition to the cells. At the end of the infection, the cells were washed twice with ice-cold PBS and collected by scraping in a small volume of ice-cold PBS. After centrifugation (16 000 rcf, 5 min, 4° C.) the pellet was dissolved in 0.002% digitonin supplemented with a protease inhibitor cocktail (Roche complete, Roche). The dissolved pellets were incubated for 5 minutes on ice and then centrifuged (16 000 rcf, 25 min, 4° C.). Supernatants were collected and analyzed for total protein content by […] (Pierce) before SDS PAGE and Western blotting using an anti-Myc (Santa Cruz, 9E11) or anti-Ink4C (Cell Signaling) antibody.

[11] = system: Akt; format: cell-based, human
[12] = system: HeLa cells; format: cell-based, human; remark: listed apart in the source
[13] = system: zebrafish embryos; settings: in vivo

## YopE1-138-(tBID-BH3): BH3 domain of murine tBID fused to YopE1-138, control for repeated domain constructs
[1]
  cell death (nuclear count): triggered cell death
[2]
  cell death (nuclear count): triggered cell death

## BH3 domain of murine BID: YopE1-138 fusion to BH3 domain of murine tBID, codon optimized for Y. enterocolitica
[3]
  cell death: induce massive cell death
[4]
  cell death: induce massive cell death
[5]
  cell death: induce massive cell death
[6]
  cell death: induce massive cell death

## YopE1-138-(tBID-BH3)-(BAX-BH3): murine BH3 domain of tBID fused to murine BH3 domain of BAX, fused to YopE1-138
[1]
  cell death (nuclear count): more active than YopE1-138-(tBID-BH3) at lower MOI
[2]
  cell death (nuclear count): more active than YopE1-138-(tBID-BH3) at lower MOI

## YopE1-138-(tBID BH3)2: murine BH3 domain of tBID fused to itself, fused to YopE1-138
[1]
  IC50 (MOI), pBad-MycHisA based delivery compared with pYV encoded: slightly decreased IC50 value
  capacity of inducing apoptosis, IC50 (MOI needed to kill 50% of cells): decreased upon delivery of tandem repeats of tBID BH3 domain as compared to a single tBID BH3 domain
  cell death (nuclear count): more active than YopE1-138-(tBID-BH3) at lower MOI
  efficiency of cell killing, IC50 (MOI needed to kill 50% of cells): decreased upon delivery of tandem repeats of tBID BH3 domain as compared to a single tBID BH3 domain
[2]
  IC50 (MOI), pBad-MycHisA based delivery compared with pYV encoded: slightly decreased IC50 value
  capacity of inducing apoptosis, IC50 (MOI needed to kill 50% of cells): decreased upon delivery of tandem repeats of tBID BH3 domain as compared to a single tBID BH3 domain
  cell death (nuclear count): more active than YopE1-138-(tBID-BH3) at lower MOI
  efficiency of cell killing, IC50 (MOI needed to kill 50% of cells): decreased upon delivery of tandem repeats of tBID BH3 domain as compared to a single tBID BH3 domain

## YopE1-138-SptP: YopE1-138 fusion to SptP, a GTPase activating protein (GAP) for Cdc42
[7]
  effect of co-infection on F-actin rearrangements triggered by YopE1-138-SopE-Myc: abolished this effect in a dose dependent manner

## BepG: YopE1-138 fusion to the Bid domain of the B. henselae effector BepG
[8]
  cAMP production: failed to induce cAMP

## YopE1-138-tBID: YopE1-138 fusion to human truncated BID (tBID)
[5]
  apoptosis induction / cell death: triggered cell death in larger extend than the well-characterized apoptosis inducer staurosporin
  apoptotic response (confocal images, mitochondrial integrity): induces a rapid apoptotic response
  production of CASP3 p17 subunit: lead to the production of CASP3 p17 subunit, even in larger amounts as with staurosporin

## murine tBID: murine tBID codon optimized for Y. enterocolitica fused to YopE1-138
[3]
  cell death: triggered cell death
[4]
  cell death: triggered cell death
[5]
  cell death: triggered cell death
[6]
  cell death: triggered cell death

## YopE1-138-OspF: YopE1-138 fusion to S. flexneri type III effector OspF, a phosphothreonine lyase
[9]
  TNFα-induced p38 phosphorylation: TNFα-induced phosphorylation was abolished

## YopE1-138-SopE-Myc: YopE1-138 fusion to SopE with MycHis tag
[7]
  F-actin rearrangements: triggered massive F-actin rearrangements

## TEV protease: TEV protease (S219V variant) fused to YopE1-138
[10]
  activity of T3SS delivered TEV protease: functional

## YopE1-138-SopB: YopE1-138 fusion to Salmonella type III effector SopB
[11]
  phosphorylation of Akt at T308 and S473: induced a strong phosphorylation of Akt at T308 and S473

## YopE1-138-SopE: YopE1-138 fusion to SopE from Salmonella enterica, a guanine nucleotide exchange factor
[7]
  changes in the actin network: induced dramatic changes in the actin network
  first changes in the actin cytoskeleton observed: 2 min p.i.
[11]
  phosphorylation of Akt at T308 and S473: had no effect on Akt

## BepAE305-end: YopE1-138 fusion to BepA E305-end containing the C-terminal Bid domain
[8]
  cAMP production: triggered cAMP production in expected amounts

## BepA: YopE1-138 fusion to full length type IV effector BepA from B. henselae
[8]
  cAMP production: triggered cAMP production in expected amounts

## Murine tBID fused to full length SteA: full length SteA fused to murine tBID, delivered by S. enterica
[12]
  apoptosis induction (CASP3 p17 subunit): lead to apoptosis induction

## YopE1-138-z-BIM: YopE1-138 fusion to zebrafish apoptosis inducer z-BIM
[13]
  apoptosis in nearby cells, automated image analysis on maximum intensity z projections: induce apoptosis in nearby cells by far more than control bacteria do
  cleaved CASP3 (p17) staining in regions surrounding the bacteria: strong increase in presence of cleaved CASP3
[5]
  apoptosis induction / cell death: showed clear signs of cell death

## BH3 domain of murine BAX: YopE1-138 fusion to BH3 domain of murine BAX, codon optimized for Y. enterocolitica
[3]
  cell death: induce massive cell death
[4]
  cell death: induce massive cell death
[5]
  cell death: induce massive cell death
[6]
  cell death: induce massive cell death

## YopE1-138-BID: YopE1-138 fusion to human BH3 interacting-domain death agonist (BID)
[5]
  apoptosis induction / cell death: failed to induce apoptosis

B1: SteA1-20 fused murine tBID: 20 N-terminal amino acids of SteA fused to murine tBID, delivered by S. enterica (protein)
chain: MPYTSVSTYARALSGNKLPHGTGSQASRSFNQGRIEPDSESQEEIIHNIARHLAQIGDEMDHNIQPTLVRQLAAQFMNGSLSEEDKRNCLAKALDEVKTAFPRDMENDKAMLIMTMLLAKKVASHAPSLLRDVFHTTVNFINQNLFSYVRNLVRNEMD
modifications: SteA1-20 - S. enterica codon optimized murine t-BID
notes: 20 N-terminal amino acids of SteA fused to murine tBID, delivered by S. enterica
[12]
  apoptosis induction (CASP3 p17 subunit): failed to induce apoptosis

Source: US11702663B2, “Bacteria-based protein delivery” (Universitaet Basel, priority 2015, dated 2023)
